Reference: PubChem BioAssay AID1259407 (Chemical Carcinogenesis Research Information System (CCRIS), 2018)
The source made the active and inactive calls. The rule behind the calls is not given here.

Test system: CCRIS mutagenicity, Ames/micronucleus/aberration tests
Test: CCRIS mutagenicity studies

Measured: mutagenic call

CC(=O)c1ccccc1
inactive: Test System: AMES SALMONELLA TYPHIMURIUM, Strain/Indicator: TA97, Metabolic Activation: NONE, Method: PREINCUBATION inactive; negative | Test System: AMES SALMONELLA TYPHIMURIUM, Strain/Indicator: TA97, Metabolic Activation: RAT, LIVER, S-9, AROCLOR 1254, Method: PREINCUBATION inactive; negative | Test System: AMES SALMONELLA TYPHIMURIUM, Strain/Indicator: TA98, Metabolic Activation: NONE, Method: PREINCUBATION inactive; negative | Test System: AMES SALMONELLA TYPHIMURIUM, Strain/Indicator: TA98, Metabolic Activation: RAT LIVER S-9, PHENOBARBITAL AND BETA-NAPHTHOFLAVONE, Method: PREINCUBATION inactive; negative | Test System: AMES SALMONELLA TYPHIMURIUM, Strain/Indicator: TA100, Metabolic Activation: NONE, Method: PREINCUBATION inactive; negative | Test System: AMES SALMONELLA TYPHIMURIUM, Strain/Indicator: TA100, Metabolic Activation: RAT LIVER S-9, PHENOBARBITAL AND BETA-NAPHTHOFLAVONE, Method: PREINCUBATION inactive; negative | Test System: AMES SALMONELLA TYPHIMURIUM, Strain/Indicator: TA102, Metabolic Activation: NONE, Method: PREINCUBATION inactive; negative | Test System: AMES SALMONELLA TYPHIMURIUM, Strain/Indicator: TA102, Metabolic Activation: RAT, LIVER, S-9, AROCLOR 1254, Method: PREINCUBATION inactive; negative | Test System: AMES SALMONELLA TYPHIMURIUM, Strain/Indicator: TA1535, Metabolic Activation: NONE, Method: PREINCUBATION inactive; negative | Test System: AMES SALMONELLA TYPHIMURIUM, Strain/Indicator: TA1535, Metabolic Activation: RAT LIVER S-9, PHENOBARBITAL AND BETA-NAPHTHOFLAVONE, Method: PREINCUBATION inactive; negative | Test System: AMES SALMONELLA TYPHIMURIUM, Strain/Indicator: TA1537, Metabolic Activation: NONE, Method: PREINCUBATION inactive; negative | Test System: AMES SALMONELLA TYPHIMURIUM, Strain/Indicator: TA1537, Metabolic Activation: RAT LIVER S-9, PHENOBARBITAL AND BETA-NAPHTHOFLAVONE, Method: PREINCUBATION inactive; negative | Test System: E.COLI, Strain/Indicator: WP2UVRA/PKM101, Metabolic Activation: NONE, Method: PREINCUBATION inactive; negative | Test System: E.COLI, Strain/Indicator: WP2UVRA/PKM101, Metabolic Activation: RAT LIVER S-9, PHENOBARBITAL AND BETA-NAPHTHOFLAVONE, Method: PREINCUBATION inactive; negative

O=C1NC(=O)C(c2ccccc2)(c2ccc(O)cc2)N1 (stereo unspecified)
inactive: Test System: AMES SALMONELLA TYPHIMURIUM, Strain/Indicator: TA97, Metabolic Activation: NONE, Method: STANDARD PLATE inactive; negative | Test System: AMES SALMONELLA TYPHIMURIUM, Strain/Indicator: TA97, Metabolic Activation: RAT, LIVER, S-9, 3-METHYLCHOLANTHRENE, Method: PREINCUBATION (10, 20 OR 30 MIN) inactive; negative | Test System: AMES SALMONELLA TYPHIMURIUM, Strain/Indicator: TA97, Metabolic Activation: RAT, LIVER, S-9, 3-METHYLCHOLANTHRENE, Method: STANDARD PLATE inactive; negative | Test System: AMES SALMONELLA TYPHIMURIUM, Strain/Indicator: TA97, Metabolic Activation: RAT, LIVER, S-9, AROCLOR 1254, Method: PREINCUBATION (10, 20 OR 30 MIN) inactive; negative | Test System: AMES SALMONELLA TYPHIMURIUM, Strain/Indicator: TA97, Metabolic Activation: RAT, LIVER, S-9, AROCLOR 1254, Method: STANDARD PLATE inactive; negative | Test System: AMES SALMONELLA TYPHIMURIUM, Strain/Indicator: TA97, Metabolic Activation: RAT, LIVER, S-9, PHENOBARBITONE, Method: PREINCUBATION (10, 20 OR 30 MIN) inactive; negative | Test System: AMES SALMONELLA TYPHIMURIUM, Strain/Indicator: TA97, Metabolic Activation: RAT, LIVER, S-9, PHENOBARBITONE, Method: STANDARD PLATE inactive; negative | Test System: AMES SALMONELLA TYPHIMURIUM, Strain/Indicator: TA98, Metabolic Activation: NONE, Method: STANDARD PLATE inactive; negative | Test System: AMES SALMONELLA TYPHIMURIUM, Strain/Indicator: TA98, Metabolic Activation: RAT, LIVER, S-9, 3-METHYLCHOLANTHRENE, Method: STANDARD PLATE inactive; negative | Test System: AMES SALMONELLA TYPHIMURIUM, Strain/Indicator: TA98, Metabolic Activation: RAT, LIVER, S-9, AROCLOR 1254, Method: STANDARD PLATE inactive; negative | Test System: AMES SALMONELLA TYPHIMURIUM, Strain/Indicator: TA98, Metabolic Activation: RAT, LIVER, S-9, PHENOBARBITONE, Method: STANDARD PLATE inactive; negative | Test System: AMES SALMONELLA TYPHIMURIUM, Strain/Indicator: TA100, Metabolic Activation: NONE, Method: STANDARD PLATE inactive; negative | Test System: AMES SALMONELLA TYPHIMURIUM, Strain/Indicator: TA100, Metabolic Activation: RAT, LIVER, S-9, 3-METHYLCHOLANTHRENE, Method: STANDARD PLATE inactive; negative | Test System: AMES SALMONELLA TYPHIMURIUM, Strain/Indicator: TA100, Metabolic Activation: RAT, LIVER, S-9, AROCLOR 1254, Method: STANDARD PLATE inactive; negative | Test System: AMES SALMONELLA TYPHIMURIUM, Strain/Indicator: TA100, Metabolic Activation: RAT, LIVER, S-9, PHENOBARBITONE, Method: STANDARD PLATE inactive; negative | Test System: AMES SALMONELLA TYPHIMURIUM, Strain/Indicator: TA1530, Metabolic Activation: NONE, Method: STANDARD PLATE inactive; negative | Test System: AMES SALMONELLA TYPHIMURIUM, Strain/Indicator: TA1530, Metabolic Activation: RAT, LIVER, S-9, 3-METHYLCHOLANTHRENE, Method: STANDARD PLATE inactive; negative | Test System: AMES SALMONELLA TYPHIMURIUM, Strain/Indicator: TA1530, Metabolic Activation: RAT, LIVER, S-9, AROCLOR 1254, Method: STANDARD PLATE inactive; negative | Test System: AMES SALMONELLA TYPHIMURIUM, Strain/Indicator: TA1530, Metabolic Activation: RAT, LIVER, S-9, PHENOBARBITONE, Method: STANDARD PLATE inactive; negative | Test System: AMES SALMONELLA TYPHIMURIUM, Strain/Indicator: TA1537, Metabolic Activation: NONE, Method: STANDARD PLATE inactive; negative | Test System: AMES SALMONELLA TYPHIMURIUM, Strain/Indicator: TA1537, Metabolic Activation: RAT, LIVER, S-9, 3-METHYLCHOLANTHRENE, Method: STANDARD PLATE inactive; negative | Test System: AMES SALMONELLA TYPHIMURIUM, Strain/Indicator: TA1537, Metabolic Activation: RAT, LIVER, S-9, AROCLOR 1254, Method: STANDARD PLATE inactive; negative | Test System: AMES SALMONELLA TYPHIMURIUM, Strain/Indicator: TA1537, Metabolic Activation: RAT, LIVER, S-9, PHENOBARBITONE, Method: STANDARD PLATE inactive; negative | Test System: AMES SALMONELLA TYPHIMURIUM, Strain/Indicator: TA1538, Metabolic Activation: NONE, Method: STANDARD PLATE inactive; negative | Test System: AMES SALMONELLA TYPHIMURIUM, Strain/Indicator: TA1538, Metabolic Activation: RAT, LIVER, S-9, 3-METHYLCHOLANTHRENE, Method: STANDARD PLATE inactive; negative | Test System: AMES SALMONELLA TYPHIMURIUM, Strain/Indicator: TA1538, Metabolic Activation: RAT, LIVER, S-9, AROCLOR 1254, Method: STANDARD PLATE inactive; negative | Test System: AMES SALMONELLA TYPHIMURIUM, Strain/Indicator: TA1538, Metabolic Activation: RAT, LIVER, S-9, PHENOBARBITONE, Method: STANDARD PLATE inactive; negative
